In patent publication US20210112813A1, “HERBICIDAL COMPOSITION AND USE THEREOF” (NANTONG JIANGSHAN AGROCHEMICAL & CHEMICALS CO., LTD., priority 2019, published 2021):

Tests used:
Type in all cases: in vivo
[1] = system: Horseweed herb (collected from Shenyang, Liaoning); assay: Example 13 combined effect on weeds, Gowing method
Method: (§1) The weed cultivation and test material cultivation method was as follows: quantitative weed seeds abutilon and bristlegrass were respectively sown in a paper cup filled with nutrient soil with a diameter of 7 cm, and then cultivated in the greenhouse after covering the soil, suppressing and watering. The stem and leaf spray treatment was performed when the grass weeds grew to 5-7 leaf stage, and broad-leaved weeds grew to 6-8 leaf stage; the tests were repeated for 3 times. the treatment and drug solution naturally dried, the weeds were placed in the greenhouse to be managed according to conventional methods. According to the suppression or death of the weeds, a visual control effect investigation was conducted 30 days after the treatment.
(§2) The application adopted the Gowing method to evaluate the combined effect of the proposed composition.
(§3) X—Weed control effect when the amount of herbicide component A is P;
(§4) Y—Weed control effect when the amount of herbicide component B is Q;
(§5) E0—Theoretical control effect when the amount of herbicide component A is […];
(§6) E—The measured control effect after the herbicide component A and the herbicide component B are mixed according to the above ratio.
(§7) When E−E0>10%, it is synergism; when E−E0<−10%, it is antagonism; when E−E0 value is between ±10%, it is addition.
(§8) The test targets were horseweed herb collected from Shenyang, Liaoning and goosegrass collected from Zhengzhou, Henan.

[2] = system: goosegrass (collected from Zhengzhou, Henan); assay: Example 13 combined effect on weeds, Gowing method
Method: as §1, §2, §3, §4, §5, §6, §7, §8

Bristlegrass = assay: Example 12 indoor pot experiment, stem and leaf spray, visual control effect 30 days after treatment, Gowing method
Method: (§9) The combined effect of the composition on the weeds was clarified by the indoor pot experiment.
as §1, §2, §3, §4, §5, §6, §7

Abutilon [3] = assay: as above
Method: as §9, §1, §2, §3, §4, §5, §6, §7

Echinochloacrusgalli = assay: Example 15 indoor pot planting, death rate / herbicidal speed, weeds in 6-leaf stage
Method: (§10) The death rate of weeds after application of the herbicidal composition of the present application was measured and compared with the herbicidal rate when a single component was used. The test used the method of indoor pot planting. At the time of treatment, abutilon and barnyardgrass were in 6-leaf stage.

Abutilon [4] = assay: as above
Method: as §10

[5] = Example 13 Table 2, dose 37.5 ga.i./hm^2
[6] = Example 13 Table 2, dose 75 ga.i./hm^2
[7] = Example 13 Table 2, dose 150 ga.i./hm^2
[8] = Example 13 Table 2, dose 300 ga.i./hm^2
[9] = Example 12 Table 1, dose 37.5 ga.i./hm^2
[10] = Example 12 Table 1, dose 75 ga.i./hm^2
[11] = Example 12 Table 1, dose 150 ga.i./hm^2
[12] = Example 12 Table 1, dose 300 ga.i./hm^2
[13] = Table 11, 7 days after treatment, dose 50 ga.i./hm^2
[14] = Table 11, 7 days after treatment, dose 100 ga.i./hm^2
[15] = Table 11, 7 days after treatment, dose 200 ga.i./hm^2
[16] = Table 11, 7 days after treatment, dose 400 ga.i./hm^2
[17] = Table 11, 15 days after treatment, dose 50 ga.i./hm^2
[18] = Table 11, 15 days after treatment, dose 100 ga.i./hm^2
[19] = Table 11, 15 days after treatment, dose 200 ga.i./hm^2
[20] = Table 11, 15 days after treatment, dose 400 ga.i./hm^2
[21] = Table 11, 30 days after treatment, dose 50 ga.i./hm^2
[22] = Table 11, 30 days after treatment, dose 100 ga.i./hm^2
[23] = Table 11, 30 days after treatment, dose 200 ga.i./hm^2
[24] = Table 11, 30 days after treatment, dose 400 ga.i./hm^2

**Q.** CC(C)N.O=C(O)CNCP(=O)(O)O [Glyphosate isopropylamine] was tested. Which “Measured value E” value [1, 5] did it give?
**A.** 25%

**Q.** And the “Measured value E” value [1, 6]?
**A.** 35%

**Q.** And the “Measured value E” value [1, 7]?
**A.** 65%

**Q.** What about the “Measured value E” value [1, 8] of the same molecule?
**A.** 70%

**Q.** What about the “Measured value E” value [2, 5] of the same molecule?
**A.** 5%

**Q.** What about the “Measured value E” value [2, 6] of the same molecule?
**A.** 25%

**Q.** And the “Measured value E” value [2, 7]?
**A.** 50%

**Q.** What about the “Measured value E” value [2, 8] of the same molecule?
**A.** 65%

**Q.** What about the “Measured value E” value (Bristlegrass; [9]) of the same molecule?
**A.** 0%

**Q.** And the “Measured value E” value (Bristlegrass; [10])?
**A.** 15%

**Q.** What about the “Measured value E” value (Bristlegrass; [11]) of the same molecule?
**A.** 30%

**Q.** And the “Measured value E” value (Bristlegrass; [12])?
**A.** 45%

**Q.** What about the “Measured value E” value (Abutilon [3]; [9]) of the same molecule?
**A.** 10%

**Q.** What about the “Measured value E” value (Abutilon [3]; [10]) of the same molecule?
**A.** 20%

**Q.** What about the “Measured value E” value (Abutilon [3]; [11]) of the same molecule?
**A.** 50%

**Q.** And the “Measured value E” value (Abutilon [3]; [12])?
**A.** 65%

**Q.** What about the “Control effect (visual observation %)” value (Echinochloacrusgalli; [13]) of the same molecule?
**A.** 4.1%

**Q.** And the “Control effect (visual observation %)” value (Echinochloacrusgalli; [14])?
**A.** 36.9%

**Q.** What about the “Control effect (visual observation %)” value (Echinochloacrusgalli; [15]) of the same molecule?
**A.** 62.2%

**Q.** What about the “Control effect (visual observation %)” value (Echinochloacrusgalli; [16]) of the same molecule?
**A.** 66.7%

**Q.** And the “Control effect (visual observation %)” value (Echinochloacrusgalli; [17])?
**A.** 34.3%

**Q.** And the “Control effect (visual observation %)” value (Echinochloacrusgalli; [18])?
**A.** 48.7%

**Q.** What about the “Control effect (visual observation %)” value (Echinochloacrusgalli; [19]) of the same molecule?
**A.** 63.9%

**Q.** And the “Control effect (visual observation %)” value (Echinochloacrusgalli; [20])?
**A.** 64.5%

**Q.** What about the “Control effect (visual observation %)” value (Echinochloacrusgalli; [21]) of the same molecule?
**A.** 29.6%

**Q.** What about the “Control effect (visual observation %)” value (Echinochloacrusgalli; [22]) of the same molecule?
**A.** 68.5%

**Q.** What about the “Control effect (visual observation %)” value (Echinochloacrusgalli; [23]) of the same molecule?
**A.** 100%

**Q.** What about the “Control effect (visual observation %)” value (Echinochloacrusgalli; [24]) of the same molecule?
**A.** 99.0%

**Q.** And the “Control effect (visual observation %)” value (Abutilon [4]; [13])?
**A.** 5.8%

**Q.** And the “Control effect (visual observation %)” value (Abutilon [4]; [14])?
**A.** 16.2%

**Q.** What about the “Control effect (visual observation %)” value (Abutilon [4]; [15]) of the same molecule?
**A.** 24.6%

**Q.** And the “Control effect (visual observation %)” value (Abutilon [4]; [16])?
**A.** 43.5%

**Q.** And the “Control effect (visual observation %)” value (Abutilon [4]; [17])?
**A.** 9.0%

**Q.** And the “Control effect (visual observation %)” value (Abutilon [4]; [18])?
**A.** 26.2%

**Q.** What about the “Control effect (visual observation %)” value (Abutilon [4]; [19]) of the same molecule?
**A.** 38.3%

**Q.** What about the “Control effect (visual observation %)” value (Abutilon [4]; [20]) of the same molecule?
**A.** 38.0%

**Q.** And the “Control effect (visual observation %)” value (Abutilon [4]; [21])?
**A.** 6.8%

**Q.** And the “Control effect (visual observation %)” value (Abutilon [4]; [22])?
**A.** 20.0%

**Q.** And the “Control effect (visual observation %)” value (Abutilon [4]; [23])?
**A.** 62.6%

**Q.** And the “Control effect (visual observation %)” value (Abutilon [4]; [24])?
**A.** 79.9%
